The values that follow come from patent publication US20240182460A1, “ALLOSTERIC CHROMENONE INHIBITORS OF PHOSPHOINOSITIDE 3-KINASE (PI3K) FOR THE TREATMENT OF DISEASE” (PETRA PHARMA CORPORATION, priority 2022, published 2024).

Usually microsomal CLint stands for the capacity of the preparation to metabolise the compound, expressed as a volume cleared per time. Lower therefore signals greater metabolic stability. The IC50 is the midpoint of a concentration-inhibition curve. High values mean weaker potency, low ones greater potency.

Data set [1] in a line: Metabolic stability and intrinsic clearance in human liver microsomes (MICS). The data set is classed as in vitro ADME. The conditions noted are these: human, microsomes, pH 7.4. The protocol:
Metabolic Stability and Intrinsic Clearance in Liver Microsomes (MICS)
One objective of this assay is to measure in vitro metabolic stability of a test compound in liver microsomes of one or more different species. The concentration of a control compound in the reaction system is evaluated by LC/MS/MS for calculating intrinsic clearance of a test compound and estimating the stability of the control compound and test compound in liver microsomes of one or more different species.
Microsomes (MICS). Human Liver Microsomes (HLM), Monkey Liver Microsomes (MKLM), Dog Liver Microsomes (DLM), Rat Liver Microsomes (RLM), and Mouse Liver Microsomes (MLM) are obtained at a concentration of 20 mg/mL protein from commercial sources and stored in a −80° C. freezer. Prior to use, liver microsomes are removed from the freezer and allowed to thaw in a 37° C. water bath and then stored on wet ice.
Stock Solutions. Test Compound (TC) Stock Solutions are prepared in DMSO at a concentration of 10 mM and stored for later use. Positive Control (PC) Stock Solutions of verapamil·HCL (FW: 491.1 g/mol) in DMSO are prepared at a concentration of 10 mM (4.91 mg/mL), and stored at the condition same as the stock solutions of test compounds.
Phosphate Buffer. Phosphate Buffer (100 mM, pH 7.4) is prepared by combining a Solution A and a Solution B as follows.
To prepare Solution A, 7.098 g of disodium hydrogen phosphate was combined with 500 mL of pure water and sonicated to dissolve. To prepare the Solution B, 3.400 g of potassium dihydrogen phosphate was combined with 250 mL of pure water and sonicated to dissolve. Solution A was placed on a stirrer and Solution B was slowly added into Solution A until the pH reached 7.4.
NADPH Solution. A 10 mM NADPH Solution is prepared by dissolving NADPH (MW: 833.4 g/mol) at 8.334 mg/mL in phosphate buffer (100 mM, pH 7.4).
Microsome Master Solution. A Microsome Master Solution is prepared by adding 6.25 μL microsomes (20 mg/mL) to 216.25 μL Phosphate Buffer (100 mM). The final concentration is Phosphate Buffer (100 mM); microsomes (0.5 mg/mL).
Dilution of Stock Solutions. The TC Stock Solutions (10 mM in DMSO) and the PC Stock Solutions (10 mM in DMSO) are diluted by adding 3 μL of the TC Stock Solution or the PC Stock Solution to 297 μL of 50% acetonitrile/50% water.
Incubation. Two separated experiments were performed as follows. a) With Cofactors (NADPH): 25 μL of 10 mM NADPH was added to the incubations. The final concentrations of
microsomes and NADPH were 0.5 mg/mL and 1 mM, respectively. b) Without Cofactors (NADPH): 25 μL of 100 mM Phosphate buffer was added to the incubations. The final concentration of microsomes was 0.5 mg/mL. The mixture was pre-warmed at 37° C. for 10 minutes.
The reaction was started with the addition of 2.5 μL of 100 μM PC solution or TC solutions.
Verapamil was used as PC in this study. The final concentration of test compound or control compound was 1 μM. The incubation solution was incubated in water batch at 37° C.
Reaction Termination. Aliquots of 30 μL were taken from the reaction solution at 0.5, 5, 15, 30 and 60 minutes and added to plates. The reaction was stopped by the addition of 5 volumes of cold acetonitrile and a solution containing 100 nM alprazolam, 200 nM caffeine and 100 nM tolbutamide.
Sampling. The plates containing the terminated reactions were centrifuged at 4000 rpm for 30 minutes. Supernatant of each compound (40 μL) was transferred into a 96-well analysis plate.
Four compound samples are pooled together into one cassette and diluted by adding 160 μL of pure water. All incubations are performed in duplicate.
Analysis and Data Processing. Quantitative LC-MS analysis is performed, and peak areas are determined from extracted ion chromatograms. Percent parent remaining was calculated from peak area of TC or PC. The slope value, k, is determined by linear regression of the natural logarithm of percent parent remaining vs. incubation time curve. […]

In data set [2] the target is PI3Kα E545K (Homo sapiens, UniProt P42336, E545K). Description: PI3Kα E545K mutant in vitro cell based assay, MDA-MB-361 cells. Set-up: MDA-MB-361 (ATCC-HTB-27) cell line (PI3Kα E545K); host or cells: MDA-MB-361. To be noted: MDA-MB-361 cell line, 0% FBS, no insulin, 3 hours treatment. The source says: PI3K-Alpha Kinase (PI3Kα) Activity: Wild-Type PI3Kα, H1047R Mutant PI3Kα, and E545K Mutant PI3Kα In Vitro Cell Based Assays and Determination of IC50 Values for Inhibitors
Sequence of PI3Kα E545K (P42336 whole entry E545K): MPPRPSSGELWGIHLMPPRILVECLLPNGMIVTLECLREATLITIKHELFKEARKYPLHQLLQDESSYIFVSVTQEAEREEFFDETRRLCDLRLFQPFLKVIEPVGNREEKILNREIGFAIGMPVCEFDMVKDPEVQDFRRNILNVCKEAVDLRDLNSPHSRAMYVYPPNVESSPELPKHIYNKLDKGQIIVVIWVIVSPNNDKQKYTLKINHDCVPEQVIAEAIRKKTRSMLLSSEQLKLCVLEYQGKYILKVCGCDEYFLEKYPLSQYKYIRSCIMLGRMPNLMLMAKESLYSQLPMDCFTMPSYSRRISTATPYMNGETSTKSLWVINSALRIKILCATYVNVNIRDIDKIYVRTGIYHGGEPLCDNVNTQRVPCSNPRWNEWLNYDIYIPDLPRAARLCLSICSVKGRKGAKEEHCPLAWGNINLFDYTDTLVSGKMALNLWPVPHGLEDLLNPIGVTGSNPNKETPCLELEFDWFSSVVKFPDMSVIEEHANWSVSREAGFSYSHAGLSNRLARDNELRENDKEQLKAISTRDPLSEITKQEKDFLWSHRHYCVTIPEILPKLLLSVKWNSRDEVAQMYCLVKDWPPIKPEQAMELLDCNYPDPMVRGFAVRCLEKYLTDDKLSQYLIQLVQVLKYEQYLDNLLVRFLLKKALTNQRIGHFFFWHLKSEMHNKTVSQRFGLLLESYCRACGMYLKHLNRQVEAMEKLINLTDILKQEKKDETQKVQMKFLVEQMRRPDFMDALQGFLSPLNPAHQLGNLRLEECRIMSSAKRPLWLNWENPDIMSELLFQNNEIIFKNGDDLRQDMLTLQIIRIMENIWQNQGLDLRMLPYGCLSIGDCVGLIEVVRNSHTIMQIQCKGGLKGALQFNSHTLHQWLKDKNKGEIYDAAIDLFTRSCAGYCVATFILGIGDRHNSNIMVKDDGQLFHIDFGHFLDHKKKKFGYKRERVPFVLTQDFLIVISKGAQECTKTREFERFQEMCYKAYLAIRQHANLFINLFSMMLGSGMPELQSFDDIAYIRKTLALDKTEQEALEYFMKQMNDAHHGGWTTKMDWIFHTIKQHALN
Sequence of PI3Kα E545K (P27986 whole entry partner): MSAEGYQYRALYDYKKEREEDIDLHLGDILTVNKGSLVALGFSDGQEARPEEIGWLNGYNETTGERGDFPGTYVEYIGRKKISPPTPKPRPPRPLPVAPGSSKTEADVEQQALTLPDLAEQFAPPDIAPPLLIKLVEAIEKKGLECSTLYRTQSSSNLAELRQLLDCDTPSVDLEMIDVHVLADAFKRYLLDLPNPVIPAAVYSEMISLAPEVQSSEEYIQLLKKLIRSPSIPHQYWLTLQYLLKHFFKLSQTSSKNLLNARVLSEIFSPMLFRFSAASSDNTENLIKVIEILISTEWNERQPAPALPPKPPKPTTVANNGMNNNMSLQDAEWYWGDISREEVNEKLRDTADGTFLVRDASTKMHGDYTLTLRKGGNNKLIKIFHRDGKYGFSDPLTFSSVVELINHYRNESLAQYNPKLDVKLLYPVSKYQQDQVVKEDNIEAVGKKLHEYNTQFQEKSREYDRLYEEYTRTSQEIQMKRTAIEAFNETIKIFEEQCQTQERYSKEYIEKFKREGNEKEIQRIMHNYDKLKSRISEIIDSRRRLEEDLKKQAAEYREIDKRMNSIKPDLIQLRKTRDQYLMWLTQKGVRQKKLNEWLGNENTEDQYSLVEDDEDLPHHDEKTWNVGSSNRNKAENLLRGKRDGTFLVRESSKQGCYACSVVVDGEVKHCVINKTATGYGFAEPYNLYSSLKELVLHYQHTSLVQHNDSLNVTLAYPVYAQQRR
The MDA-MB-453 (ATCC-HTB-131) cell line (PI3Kα H1047R) and MCF-7 (ATCC-HTB-22) cell line (PI3Kα E545K), MDA-MB-361 (ATCC-HTB-27) cell line (PI3Kα E545K), and SKBR3 (ATCC-HTB-30) cell line (wild type PI3Kα) were obtained from the American Type Culture Collection (Manassas, VA). MDA-MB-453 cells were maintained in Dulbecco's Modified Eagle Media (DMEM, Gibco 12430) supplemented with 10% Fetal Bovine Serum, heat inactivated (FBS HI, Gibco 10082), 1× non-essential amino acids (NEAA, Gibco 11140), 1 mM sodium pyruvate (Gibco 11360) and 1× Anti-Anti (Gibco 15240). MCF-7 cells were maintained in Minimum Essential Media (MEM) (Gibco 11095) supplemented with 10% Fetal Bovine Serum, heat inactivated (FBS HI, Gibco 10082), 1× non-essential amino acids (NEAA, Gibco 11140), 1 mM sodium pyruvate (Gibco 11360), 1× Anti-Anti (Gibco 15240) and 10 μg/mL human insulin (Sigma I 9278). MDA-MB-361 cells were maintained in Dulbecco's Modified Eagle Media (DMEM, Gibco 12430) supplemented with 20% Fetal Bovine Serum, heat inactivated (FBS HI, Gibco 10082), 1× non-essential amino acids (NEAA, Gibco 11140), 1 mM sodium pyruvate (Gibco 11360) and 1× Anti-Anti (Gibco 15240). SKBR3 cells were maintained in McCoy's 5A (Gibco 16600) supplemented with 10% Fetal Bovine Serum, heat inactivated (FBS HI, Gibco 10082), and 1× Anti-Anti (Gibco 15240). Cultures were maintained in a humidified incubator at 37° C. under 5% CO2/95% air.
For compound testing in 0% FBS, MDA-MB-453, MCF-7 and SKBR3 cells were seeded at a density of 1.5×10^4, 1.0×10^4, and 1.0×10^4 cells, respectively, per well in white 384-well plates in 20 μl of Minimum Essential Media (MEM) assay media with 1×NEAA, 1 mM sodium pyruvate, and 1 μg/mL human insulin (Sigma 19278) (Assay Medium); while MDA-MB-361 cells were seeded at a density of 1.5×10^4 per well in white 384-well plates in 20 μl Assay Medium without insulin. After plating, cells were allowed to attach overnight. Compounds dissolved in 10 mM stock solutions in DMSO were serially diluted 1:3 in DMSO to generate a 10-point dilution series and plated using an acoustic liquid handler system (Echo 550 Series Liquid Handler, Labcyte). A 5× intermediate compound dilution plate in MEM with 1×NEAA and 1 mM sodium pyruvate (150 μM starting compound concentration in 1.5% DMSO) was then prepared. Five μl of the intermediate serially diluted compounds were added to the cell plate to final concentrations ranging from […] in 0.3% DMSO. 0.3% DMSO alone was used to establish the maximum (MAX) signal and GDC-0032 at a final concentration of 1 μM was used as a reference compound for the minimum (MIN) signal. After 3 hours treatment, the medium was removed, and the cells were lysed in 10 μL of 1× SureFire Lysis buffer with shaking for 10 minutes at room temperature. The Acceptor Mix (Reaction Buffer 1+Reaction Buffer 2+Activation Buffer+SureFire Ultra Acceptor Beads) was prepared by diluting Activation buffer 25-fold in combined Reaction Buffer 1 and Reaction Buffer 2.
The Acceptor beads were diluted 50-fold in the combined Reaction Buffers. Five μL of Acceptor Mix was added to each well, the plate was sealed and covered with foil and incubated for 1 hour at room temperature. The Donor Mix (dilution buffer+SureFire Ultra Donor Beads) was prepared by diluting Donor Beads 50-fold in dilution buffer. Five μL of the Donor Mix was added to each well and the plate sealed and covered with foil and incubated for 1-2 hours at room temperature in the dark. The plates were read on a Neo2 plate reader instrument from Biotek using standard AlphaLisa settings.
Compounds were tested in duplicate and the % inhibition at each compound concentration was used to generate two dose response curves. One IC50 was generated using average % inhibition at each compound concentration. […]

`Cc1cc([C@@H](C)Oc2ccc(Cl)cc2S(N)(=O)=O)c2oc(-c3cnn(C)c3)c(C)c(=O)c2c1` [Example 99C, 5-Chloro-2-[(1R)-1-[3,6-dimethyl-2-(1-methylpyrazol-4-yl)-4-oxo-chromen-8-yl]ethoxy]benzenesulfonamide]: the microsomal CLint at 1 μM in data set [1] is less than 50 µL/min/mg. This compound also displayed an IC50 in data set [2] of less than 500 nM.

As to `CCn1cc2cc(-c3oc4c([C@@H](C)Oc5ccc(Cl)nc5C(N)=O)cc(C)cc4c(=O)c3C)ccc2n1` [Example 75C, 6-Chloro-3-[(1R)-1-[2-(2-ethylindazol-5-yl)-3,6-dimethyl-4-oxo-chromen-8-yl]ethoxy]pyridine-2-carboxamide], in data set [1], the microsomal CLint at 1 μM is less than 50 µL/min/mg. Also, the IC50 in data set [2] is less than 500 nM.

In data set [1], `Cc1cc([C@@H](C)Oc2ccc(Cl)nc2C(N)=O)c2oc(-c3cnc(OC(C)C)nc3)c(C)c(=O)c2c1` [Example 79C, 6-Chloro-3-[(1R)-1-[2-(2-isopropoxypyrimidin-5-yl)-3,6-dimethyl-4-oxo-chromen-8-yl]ethoxy]pyridine-2-carboxamide] came in with an intrinsic clearance (microsomal CLint) at 1 μM of less than 50 µL/min/mg. The IC50 in data set [2] was less than 500 nM.

In the case of `Cc1cc([C@@H](C)Oc2ccc(Cl)nc2C(N)=O)c2oc(-c3cnc4ccoc4c3)c(C)c(=O)c2c1` [Example 80C, 6-Chloro-3-[(1R)-1-(2-furo[3,2-b]pyridin-6-yl-3,6-dimethyl-4-oxo-chromen-8-yl)ethoxy]pyridine-2-carboxamide], the microsomal CLint at 1 μM in data set [1] was less than 50 µL/min/mg. The same compound displayed an IC50 in data set [2] of less than 500 nM.

In turn, `Cc1cc([C@@H](C)Oc2ccc(Cl)nc2S(N)(=O)=O)c2oc(-c3cnn(C[C@@H](C)O)c3)c(C)c(=O)c2c1` [Example 4B, 6-Chloro-3-[(1R)-1-[2-[1-[(2R)-2-hydroxypropyl]pyrazol-4-yl]-3,6-dimethyl-4-oxo-chromen-8-yl]ethoxy]pyridine-2-sulfonamide] showed a microsomal CLint at 1 μM in data set [1] of less than 50 µL/min/mg. Also, the IC50 in data set [2] is less than 500 nM.

As to `Cc1cc([C@@H](C)Oc2ccc(Cl)nc2S(N)(=O)=O)c2oc(-c3cnc4ccoc4c3)c(C)c(=O)c2c1` [Example 22C, 6-Chloro-3-[(1R)-1-(2-furo[3,2-b]pyridin-6-yl-3,6-dimethyl-4-oxo-chromen-8-yl)ethoxy]pyridine-2-sulfonamide], in data set [1], the intrinsic clearance (microsomal CLint) at 1 μM was less than 50 µL/min/mg. Moreover, the IC50 in data set [2] is less than 500 nM.

`Cc1cc([C@@H](C)Oc2ccc(F)cc2S(N)(=O)=O)c2oc(-c3cnn(C)c3)c(C)c(=O)c2c1` [Example 105C, 2-[(1R)-1-[3,6-Dimethyl-2-(1-methylpyrazol-4-yl)-4-oxo-chromen-8-yl]ethoxy]-5-fluoro-benzenesulfonamide] registered a microsomal CLint at 1 μM in data set [1] of less than 50 µL/min/mg. The compound further showed an IC50 in data set [2] of less than 500 nM.

In data set [1], `Cc1cc([C@@H](C)Oc2ccc(Cl)nc2C(N)=O)c2oc(-c3ccc4nn(C)cc4c3)c(C)c(=O)c2c1` [Example 11A, 6-Chloro-3-[(1R)-1-[3,6-dimethyl-2-(2-methylindazol-5-yl)-4-oxo-chromen-8-yl]ethoxy]pyridine-2-carboxamide] returned a microsomal CLint at 1 μM of less than 50 µL/min/mg. The compound also returned an IC50 in data set [2] of less than 500 nM.

In turn, `Cc1cc([C@@H](C)Oc2ccc(Cl)nc2S(N)(=O)=O)c2oc(-c3cnn(CC(C)(C)O)c3)c(C)c(=O)c2c1` [Example 2B, 6-Chloro-3-[(1R)-1-[2-[1-(2-hydroxy-2-methyl-propyl)pyrazol-4-yl]-3,6-dimethyl-4-oxo-chromen-8-yl]ethoxy]pyridine-2-sulfonamide] showed a microsomal CLint at 1 μM in data set [1] of less than 50 µL/min/mg. In data set [2], this compound gave an IC50 of less than 500 nM.

In data set [1], `Cc1cc([C@@H](C)Oc2ccc(Cl)cc2S(N)(=O)=O)c2oc(C3CC3)c(C)c(=O)c2c1` [Example 101C, 5-Chloro-2-[(1R)-1-(2-cyclopropyl-3,6-dimethyl-4-oxo-chromen-8-yl)ethoxy]benzenesulfonamide] came in with a microsomal CLint at 1 μM of less than 50 µL/min/mg. Moreover, in data set [2], the IC50 was less than 500 nM.

Compound `Cc1cc([C@@H](C)Oc2ccc(F)nc2S(N)(=O)=O)c2oc(-c3ccccc3)c(C)c(=O)c2c1` [Example 74C, 3-[(1R)-1-(3,6-Dimethyl-4-oxo-2-phenyl-chromen-8-yl)ethoxy]-6-fluoro-pyridine-2-sulfonamide] yielded a microsomal CLint at 1 μM in data set [1] of less than 50 µL/min/mg. Moreover, in data set [2], the IC50 is less than 500 nM.
